Laboratory results from patent US20120183660A1, “ISOMANNIDE DERIVATIVES AND THEIR USE AS TASTANTS” (Senomyx, Inc., priority 2009, published 2012).

System: un-induced I-17 cells
Assay: FLIPR assay on un-induced I-17 cells (no mifepristone induction of receptor expression)
Type: cell-based
Settings: compounds at 10 μM—or three times the maximum stimulation used in the dose-response analysis
Description: In order to determine the dependency of hT1R1/hT1R3 for the cell response to different stimuli, selected compounds were subjected to a similar analysis on I-17 cells that had not been induced for receptor expression with mifepristone (designated as un-induced I-17 cells). […] Compounds were presented to un-induced umami cells at […]—or three times the maximum stimulation used in the dose-response analysis.

## N[C@@H](CCC(=O)O)C(=O)[O-].[Na+] [monosodium glutamate]
  functional response in the FLIPR assay on un-induced umami cells: do not show any functional response
